From ChEMBL document CHEMBL3745662, “Preliminary investigation of 6,7-dihydropyrazolo[1,5-a]pyrazin-4-one derivatives as a novel series of mGlu5 receptor positive allosteric modulators with efficacy in preclinical models of schizophrenia” (Bioorg Med Chem Lett, 2016)
≈ marks a conversion by molar mass, not a printed value. Calls of active or inactive are those of the source. The rule behind the calls is not given here.

How the values were obtained:
[1] = target: T1, Metabotropic glutamate receptor 5 (Homo sapiens, UniProt P41594); experiment: Positive allosteric modulation of human mGlu5 expressed in HEK293 cells assessed as glutamate-induced calcium mobilization; type: functional, cell-based; conditions: read-out: EC50
Target sequence in this assay (P41594 whole entry): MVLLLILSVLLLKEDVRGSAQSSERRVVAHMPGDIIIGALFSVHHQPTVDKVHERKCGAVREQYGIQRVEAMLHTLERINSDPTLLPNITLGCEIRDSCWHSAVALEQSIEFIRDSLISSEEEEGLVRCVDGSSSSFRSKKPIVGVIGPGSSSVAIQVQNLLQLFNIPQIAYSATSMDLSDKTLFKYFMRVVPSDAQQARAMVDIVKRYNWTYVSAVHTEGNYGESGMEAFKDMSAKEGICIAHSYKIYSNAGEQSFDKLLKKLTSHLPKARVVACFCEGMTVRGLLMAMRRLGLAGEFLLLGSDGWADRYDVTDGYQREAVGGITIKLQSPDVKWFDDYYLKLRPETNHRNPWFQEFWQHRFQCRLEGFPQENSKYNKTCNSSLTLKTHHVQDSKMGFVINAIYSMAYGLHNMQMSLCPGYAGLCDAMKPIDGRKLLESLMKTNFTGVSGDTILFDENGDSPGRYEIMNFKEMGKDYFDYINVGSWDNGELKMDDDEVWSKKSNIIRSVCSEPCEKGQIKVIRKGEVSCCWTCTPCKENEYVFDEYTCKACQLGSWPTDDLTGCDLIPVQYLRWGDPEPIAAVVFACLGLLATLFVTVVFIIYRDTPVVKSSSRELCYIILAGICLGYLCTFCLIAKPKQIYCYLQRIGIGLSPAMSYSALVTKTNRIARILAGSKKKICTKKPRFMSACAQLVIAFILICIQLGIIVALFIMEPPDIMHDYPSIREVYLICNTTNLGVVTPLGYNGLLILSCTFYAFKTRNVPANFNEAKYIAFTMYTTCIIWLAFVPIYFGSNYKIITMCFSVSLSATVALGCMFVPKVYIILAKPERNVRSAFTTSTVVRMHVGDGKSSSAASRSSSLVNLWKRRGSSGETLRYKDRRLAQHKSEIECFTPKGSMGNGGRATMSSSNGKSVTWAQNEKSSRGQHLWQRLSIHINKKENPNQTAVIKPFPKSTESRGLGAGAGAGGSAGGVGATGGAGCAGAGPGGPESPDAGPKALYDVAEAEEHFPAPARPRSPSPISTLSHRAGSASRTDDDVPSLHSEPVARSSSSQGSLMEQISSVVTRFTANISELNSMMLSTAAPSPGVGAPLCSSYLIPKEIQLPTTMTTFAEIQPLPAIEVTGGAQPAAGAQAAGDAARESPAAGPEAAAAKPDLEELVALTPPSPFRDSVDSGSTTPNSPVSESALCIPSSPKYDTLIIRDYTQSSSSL

[2] = target: T1, Metabotropic glutamate receptor 5; experiment: Positive allosteric modulation of human mGlu5 expressed in HEK293 cells assessed as glutamate-induced calcium mobilization relative to glutamate; type: functional, cell-based
Target sequence in this assay (P41594 21-1212 limits assumed): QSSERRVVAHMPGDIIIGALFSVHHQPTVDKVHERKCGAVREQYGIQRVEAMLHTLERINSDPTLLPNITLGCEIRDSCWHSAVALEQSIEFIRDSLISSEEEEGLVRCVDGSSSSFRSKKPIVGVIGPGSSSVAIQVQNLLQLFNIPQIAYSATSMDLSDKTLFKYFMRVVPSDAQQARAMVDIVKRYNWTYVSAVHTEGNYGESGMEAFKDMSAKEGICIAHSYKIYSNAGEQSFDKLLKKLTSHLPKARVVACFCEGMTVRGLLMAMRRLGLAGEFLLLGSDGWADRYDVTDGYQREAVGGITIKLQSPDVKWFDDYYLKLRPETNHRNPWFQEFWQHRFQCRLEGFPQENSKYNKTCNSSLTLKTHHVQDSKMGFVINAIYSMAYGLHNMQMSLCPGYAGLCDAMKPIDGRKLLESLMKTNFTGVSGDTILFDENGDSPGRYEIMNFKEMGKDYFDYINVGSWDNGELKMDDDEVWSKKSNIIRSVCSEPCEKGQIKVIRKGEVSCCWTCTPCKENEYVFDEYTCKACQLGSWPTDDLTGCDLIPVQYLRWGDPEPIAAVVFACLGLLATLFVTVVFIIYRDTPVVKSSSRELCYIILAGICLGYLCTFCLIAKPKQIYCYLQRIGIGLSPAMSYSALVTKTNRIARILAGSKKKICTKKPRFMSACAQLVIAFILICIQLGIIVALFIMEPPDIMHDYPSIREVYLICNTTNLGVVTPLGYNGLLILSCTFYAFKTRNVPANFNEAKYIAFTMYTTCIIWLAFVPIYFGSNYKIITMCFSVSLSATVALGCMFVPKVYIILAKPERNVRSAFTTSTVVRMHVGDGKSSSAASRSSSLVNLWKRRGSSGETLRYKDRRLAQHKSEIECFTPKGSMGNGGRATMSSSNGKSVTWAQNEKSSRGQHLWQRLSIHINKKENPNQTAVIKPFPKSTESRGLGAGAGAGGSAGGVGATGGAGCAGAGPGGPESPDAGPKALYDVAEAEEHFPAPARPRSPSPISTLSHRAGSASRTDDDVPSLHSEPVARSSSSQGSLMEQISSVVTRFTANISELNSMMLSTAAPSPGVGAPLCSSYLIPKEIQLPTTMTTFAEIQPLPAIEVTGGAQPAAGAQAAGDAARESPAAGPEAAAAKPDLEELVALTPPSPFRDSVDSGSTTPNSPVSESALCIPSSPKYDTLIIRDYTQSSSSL

[3] = target: Metabotropic glutamate receptor 3 (Homo sapiens, UniProt Q14832); experiment: Antagonist activity at human mGlu3 expressed in HEK293 cells assessed as inhibition of glutamate-induced calcium mobilization; type: functional, cell-based
[4] = target: Metabotropic glutamate receptor 1 (Homo sapiens, UniProt Q13255); experiment: Positive allosteric modulation of human mGlu1 receptor expressed in HEK293 cells assessed as calcium mobilization by fluorescence analysis; type: functional, cell-based
[5] = target: Metabotropic glutamate receptor 2 (Homo sapiens, UniProt Q14416); experiment: Positive allosteric modulation of human mGlu2 receptor expressed in HEK293 cells assessed as calcium mobilization by fluorescence analysis; type: functional, cell-based
[6] = target: Metabotropic glutamate receptor 7 (Homo sapiens, UniProt Q14831); experiment: Positive allosteric modulation of human mGlu7 receptor expressed in HEK293 cells assessed as calcium mobilization by fluorescence analysis; type: functional, cell-based
[7] = target: Metabotropic glutamate receptor 8 (Homo sapiens, UniProt O00222); experiment: Positive allosteric modulation of human mGlu8 receptor expressed in HEK293 cells assessed as calcium mobilization by fluorescence analysis; type: functional, cell-based
[8] = target: T2, Metabotropic glutamate receptor 4 (Homo sapiens, UniProt Q14833); experiment: Positive allosteric modulation of human mGlu4 receptor expressed in HEK293 cells assessed as calcium mobilization by fluorescence analysis; type: functional, cell-based
[9] = target: T2, Metabotropic glutamate receptor 4; experiment: Positive allosteric modulation of human mGlu4 receptor expressed in L929sA cells assessed as calcium mobilization by fluorescence analysis; type: functional, cell-based
[10] = target: T2, Metabotropic glutamate receptor 4; experiment: Positive allosteric modulation of human mGlu4 receptor expressed in HEK293 cells by [35S]-GTPgammaS binding assay; type: functional, cell-based
[11] = target: T2, Metabotropic glutamate receptor 4; experiment: Positive allosteric modulation of human mGlu4 receptor expressed in L929sA cells by [35S]-GTPgammaS binding assay; type: functional, cell-based
[12] = target: Metabotropic glutamate receptor 6 (Rattus norvegicus, UniProt P35349); experiment: Positive allosteric modulation of rat mGlu6 receptor expressed in CHO cells by [35S]-GTPgammaS binding assay; type: functional, cell-based
[13] = Percentage unbound in rat brain; type: ADME, tissue-based; conditions: brain tissue
Cytochrome P450 1A2 = target: T3, Cytochrome P450 1A2 (Homo sapiens, UniProt P05177); experiment: Inhibition of CYP1A2 (unknown origin); type: ADME
T3 sequence (P05177 whole entry): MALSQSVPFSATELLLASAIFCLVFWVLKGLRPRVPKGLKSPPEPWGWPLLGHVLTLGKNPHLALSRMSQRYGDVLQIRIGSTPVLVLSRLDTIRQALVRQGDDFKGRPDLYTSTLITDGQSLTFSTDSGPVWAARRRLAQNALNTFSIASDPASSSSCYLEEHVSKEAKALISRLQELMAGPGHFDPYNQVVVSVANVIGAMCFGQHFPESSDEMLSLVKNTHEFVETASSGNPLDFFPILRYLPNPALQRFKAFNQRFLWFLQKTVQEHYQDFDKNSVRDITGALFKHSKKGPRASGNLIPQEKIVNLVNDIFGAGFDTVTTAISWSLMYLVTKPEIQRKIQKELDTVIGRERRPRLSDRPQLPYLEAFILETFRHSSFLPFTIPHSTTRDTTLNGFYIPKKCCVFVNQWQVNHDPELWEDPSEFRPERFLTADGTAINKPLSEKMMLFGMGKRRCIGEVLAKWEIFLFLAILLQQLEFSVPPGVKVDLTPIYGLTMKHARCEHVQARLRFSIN

Cytochrome P450 2C9 = Cytochrome P450 2C9 (Homo sapiens, UniProt P11712); experiment: Inhibition of CYP2C9 (unknown origin); type: ADME
Cytochrome P450 2D6 = Cytochrome P450 2D6 (Homo sapiens, UniProt P10635); experiment: Inhibition of CYP2D6 (unknown origin); type: ADME
Cytochrome P450 3A4 = Cytochrome P450 3A4 (Homo sapiens, UniProt P08684); experiment: Inhibition of CYP3A4 (unknown origin); type: ADME
[14] = Plasma protein binding in human assessed as percentage unbound; type: ADME, cell-free
[15] = Plasma protein binding in rat assessed as percentage unbound; type: ADME, cell-free
[16] = Solubility of compound in fed state simulated intestinal fluid; type: ADME; conditions: simulated gi fluid
[17] = target: Voltage-gated inwardly rectifying potassium channel KCNH2 (Homo sapiens, UniProt Q12809); experiment: Inhibition of human ERG
[18] = Inhibition of Calcium channel (unknown origin); parameters: species or system Homo sapiens
[19] = Inhibition of Sodium channel (unknown origin); parameters: species or system Homo sapiens
[20] = Plasma clearance in rat at 2.5 mg/kg, iv; type: ADME, organism-based
[21] = Volume of distribution at steady state in rat at 2.5 mg/kg, iv; type: ADME, organism-based; conditions: in vivo, read-out: Vdss
[22] = Half life in rat at 2.5 mg/kg, iv; type: ADME, organism-based; conditions: in vivo
[23] = Cmax in rat at 10 mg/kg, po; type: ADME, organism-based; parameters: dose 10 mg/kg, route oral; conditions: in vivo
[24] = AUC (0 to infinity) in rat at 10 mg/kg, po; type: ADME, organism-based; parameters: dose 10 mg/kg, route oral, time infinity; conditions: in vivo
[25] = Oral bioavailability in rat at 10 mg/kg; type: ADME, organism-based; conditions: in vivo
[26] = Plasma clearance in dog at 0.5 mg/kg, iv; type: ADME, organism-based, Canis lupus familiaris
[27] = Volume of distribution at steady state in dog at 0.5 mg/kg, iv; type: ADME, organism-based, Canis lupus familiaris; conditions: in vivo, read-out: Vdss
[28] = Half life in dog at 0.5 mg/kg, iv; type: ADME, organism-based, Canis lupus familiaris; conditions: in vivo
[29] = Cmax in dog at 5 mg/kg, po; type: ADME, organism-based, Canis lupus familiaris; parameters: dose 5 mg/kg, route oral; conditions: in vivo
[30] = AUC (0 to infinity) in dog at 5 mg/kg, po; type: ADME, organism-based, Canis lupus familiaris; parameters: dose 5 mg/kg, time infinity, route oral; conditions: in vivo
[31] = Oral bioavailability in dog at 5 mg/kg; type: ADME, organism-based, Canis lupus familiaris; conditions: in vivo
Rattus norvegicus [32] = experiment: Antipsychotic-like activity in po dosed Sprague-Dawley rat assessed as reversal of amphetamine-induced hyperlocomotion; type: functional
Rattus norvegicus [33] = experiment: Antipsychotic-like activity in dosed Sprague-Dawley rat assessed as full reversal of amphetamine-induced hyperlocomotion at 100 mg/kg, po; type: functional, organism-based
Rattus norvegicus [34] = experiment: Procognitive activity in po dosed Sprague-Dawley rat assessed as enhancement of contexual fear conditioning acquistion treated for 30 mins prior to conditioning measured after 24 hrs; type: functional
Rattus norvegicus [35] = experiment: Toxicity in Sprague-Dawley rat assessed as complusive behavior at 25 to 600 mg/kg, po; type: organism-based; conditions: in vivo
Rattus norvegicus [36] = experiment: Toxicity in Sprague-Dawley rat assessed as pedaling movements of forepaws at 25 to 600 mg/kg, po; type: organism-based; conditions: in vivo
Rattus norvegicus [37] = experiment: Toxicity in Sprague-Dawley rat assessed as tremors at 25 to 600 mg/kg, po; type: organism-based; conditions: in vivo
Rattus norvegicus [38] = experiment: Toxicity in Sprague-Dawley rat assessed as mortality at 600 mg/kg, po; type: organism-based; conditions: in vivo
[39] = target: Platelet-activating factor receptor (Homo sapiens) (UniProt P25105); experiment: Inhibition of human PAF at 10 uM
in vivo [40] = conditions: rat, po, 10 mg/kg
Description: Tmax in rat at 10 mg/kg, po

in vivo [41] = conditions: dog, po, 5 mg/kg

T2 sequence (Q14833 whole entry): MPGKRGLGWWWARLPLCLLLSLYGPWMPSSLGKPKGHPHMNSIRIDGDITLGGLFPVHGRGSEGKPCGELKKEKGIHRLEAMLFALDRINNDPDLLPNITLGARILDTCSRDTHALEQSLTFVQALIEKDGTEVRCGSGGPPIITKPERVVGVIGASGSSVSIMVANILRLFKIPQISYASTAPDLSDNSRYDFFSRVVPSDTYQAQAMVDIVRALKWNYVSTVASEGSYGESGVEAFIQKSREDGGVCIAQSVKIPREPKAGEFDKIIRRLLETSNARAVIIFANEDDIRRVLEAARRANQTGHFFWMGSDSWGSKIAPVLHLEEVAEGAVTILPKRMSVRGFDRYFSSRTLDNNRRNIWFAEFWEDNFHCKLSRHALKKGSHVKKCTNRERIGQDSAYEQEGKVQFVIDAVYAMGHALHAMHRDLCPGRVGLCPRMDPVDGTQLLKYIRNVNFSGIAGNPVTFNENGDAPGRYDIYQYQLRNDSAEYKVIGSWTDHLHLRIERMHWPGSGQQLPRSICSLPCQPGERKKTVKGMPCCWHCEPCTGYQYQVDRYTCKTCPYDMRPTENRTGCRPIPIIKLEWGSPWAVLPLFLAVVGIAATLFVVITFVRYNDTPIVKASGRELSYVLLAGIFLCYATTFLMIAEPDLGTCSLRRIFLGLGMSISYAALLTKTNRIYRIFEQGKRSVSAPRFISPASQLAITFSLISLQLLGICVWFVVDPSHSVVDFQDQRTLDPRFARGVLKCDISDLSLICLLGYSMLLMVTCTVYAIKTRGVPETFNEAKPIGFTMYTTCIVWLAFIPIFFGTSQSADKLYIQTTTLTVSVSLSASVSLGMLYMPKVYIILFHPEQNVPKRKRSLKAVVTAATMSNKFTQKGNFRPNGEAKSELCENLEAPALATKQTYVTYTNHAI
Sequence of Metabotropic glutamate receptor 3 (Q14832 whole entry): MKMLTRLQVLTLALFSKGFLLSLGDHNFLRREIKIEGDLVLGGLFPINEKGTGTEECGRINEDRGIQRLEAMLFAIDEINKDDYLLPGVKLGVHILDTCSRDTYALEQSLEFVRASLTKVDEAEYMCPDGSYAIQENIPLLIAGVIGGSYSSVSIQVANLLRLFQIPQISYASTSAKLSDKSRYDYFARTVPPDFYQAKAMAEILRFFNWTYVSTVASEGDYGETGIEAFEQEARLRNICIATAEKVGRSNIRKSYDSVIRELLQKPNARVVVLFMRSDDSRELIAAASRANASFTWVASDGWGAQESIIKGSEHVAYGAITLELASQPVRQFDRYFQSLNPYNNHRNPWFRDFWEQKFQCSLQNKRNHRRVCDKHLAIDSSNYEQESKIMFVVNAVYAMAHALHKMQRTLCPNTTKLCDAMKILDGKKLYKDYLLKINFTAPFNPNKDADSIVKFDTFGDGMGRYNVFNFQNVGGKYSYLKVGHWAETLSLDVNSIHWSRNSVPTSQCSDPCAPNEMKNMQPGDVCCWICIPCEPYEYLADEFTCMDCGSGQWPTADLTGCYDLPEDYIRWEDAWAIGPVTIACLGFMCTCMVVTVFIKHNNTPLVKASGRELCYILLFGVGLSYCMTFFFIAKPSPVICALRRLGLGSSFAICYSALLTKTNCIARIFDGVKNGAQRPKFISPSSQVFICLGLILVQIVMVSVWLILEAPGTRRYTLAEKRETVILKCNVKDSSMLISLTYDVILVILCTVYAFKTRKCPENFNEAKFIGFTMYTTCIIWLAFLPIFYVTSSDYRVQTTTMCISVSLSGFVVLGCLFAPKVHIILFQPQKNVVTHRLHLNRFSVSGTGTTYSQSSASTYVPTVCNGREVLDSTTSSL
Sequence of Metabotropic glutamate receptor 8 (O00222 whole entry): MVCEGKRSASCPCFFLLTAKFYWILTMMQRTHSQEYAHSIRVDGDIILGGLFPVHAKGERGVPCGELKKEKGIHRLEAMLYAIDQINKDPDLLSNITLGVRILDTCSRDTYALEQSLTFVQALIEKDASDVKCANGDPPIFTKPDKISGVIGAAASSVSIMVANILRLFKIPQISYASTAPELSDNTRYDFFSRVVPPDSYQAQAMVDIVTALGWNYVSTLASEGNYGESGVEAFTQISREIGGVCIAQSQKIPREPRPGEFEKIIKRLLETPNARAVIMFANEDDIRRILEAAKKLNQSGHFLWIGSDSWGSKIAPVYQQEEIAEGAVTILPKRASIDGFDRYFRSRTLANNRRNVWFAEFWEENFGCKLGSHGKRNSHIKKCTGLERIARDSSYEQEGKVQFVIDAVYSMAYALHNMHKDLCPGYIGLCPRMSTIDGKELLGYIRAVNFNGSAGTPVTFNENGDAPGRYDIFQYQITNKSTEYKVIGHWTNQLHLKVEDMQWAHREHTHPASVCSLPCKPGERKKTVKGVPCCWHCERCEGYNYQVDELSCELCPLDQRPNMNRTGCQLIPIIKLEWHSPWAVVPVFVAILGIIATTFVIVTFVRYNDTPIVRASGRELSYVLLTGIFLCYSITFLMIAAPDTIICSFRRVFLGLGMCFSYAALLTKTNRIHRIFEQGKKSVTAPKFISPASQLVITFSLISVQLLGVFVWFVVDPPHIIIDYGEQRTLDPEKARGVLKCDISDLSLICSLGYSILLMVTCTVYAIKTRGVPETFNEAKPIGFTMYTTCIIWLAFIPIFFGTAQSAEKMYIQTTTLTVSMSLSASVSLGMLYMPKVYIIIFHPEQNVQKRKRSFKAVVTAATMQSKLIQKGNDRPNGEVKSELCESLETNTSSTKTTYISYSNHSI

Compound: O=C1c2cc(COc3ccccc3)nn2CCN1c1ccc(F)cc1F
- EC50 [1]: 0.1 µM
- Emax [2]: 101%

Compound: O=C1c2cc(COc3cccc(F)c3)nn2CCN1c1ccc(F)cc1
- EC50 [1]: 0.1 µM
- Emax [2]: 70%

Compound: O=C1c2cc(COc3ccc(F)cc3)nn2CCN1c1ccc(F)cc1
- EC50 [1]: 0.1 µM
- Emax [2]: 72%
- EC50 [3]: 0.034 µM

Compound: O=C1c2cc(OCc3ccccc3)nn2CCN1c1cc(F)ccn1
- EC50 [1]: > 30 µM

Compound: O=C1c2c(Cl)c(COc3ccccc3)nn2CCN1c1ccc(F)cc1
- EC50 [1]: > 30 µM

Compound: O=C1c2cc(OCc3ccccc3)nn2CCN1c1ccc(F)cc1
- EC50 [1]: 0.16 µM
- Emax [2]: 54%
- EC50 [3]: 3.39 µM
- EC50 [4]: > 10 µM
- EC50 [5]: > 10 µM
- EC50 [6]: > 10 µM
- EC50 [7]: > 10 µM
- EC50 [8]: > 10 µM
- EC50 [9]: > 10 µM
- EC50 [10]: > 10 µM
- EC50 [11]: > 10 µM
- EC50 [12]: > 10 µM
- fraction unbound [13]: 0.065

Compound: O=C1c2cc(COc3ccccc3)nn2CCN1c1ccncc1
- EC50 [1]: 2.09 µM
- Emax [2]: 72%

Compound: O=C1c2nc(COc3ccccc3)nn2CCN1c1ccc(F)cc1
- EC50 [1]: 2.34 µM
- Emax [2]: 65%

Compound: COc1ccc(N2CCn3nc(COc4ccccc4)cc3C2=O)cc1
- EC50 [1]: 0.11 µM
- Emax [2]: 58%

Compound: Cc1ccc(OCc2cc3n(n2)CCN(c2ccc(F)cc2)C3=O)cc1
- EC50 [1]: 0.3 µM
- Emax [2]: 58%

Compound: O=C1c2cc(COc3ccccc3)nn2CCN1c1ccc(F)c(F)c1
- EC50 [1]: 0.087 µM
- Emax [2]: 81%

Compound: O=C1c2cc(COc3ccccc3)nn2CCN1c1ccc(F)cn1
- EC50 [1]: 0.13 µM
- Emax [2]: 72%
- EC50 [3]: 6.76 µM
- EC50 [4]: > 10 µM
- EC50 [5]: > 10 µM
- EC50 [6]: > 10 µM
- EC50 [7]: > 10 µM
- EC50 [8]: > 10 µM
- EC50 [9]: > 10 µM
- EC50 [10]: > 10 µM
- EC50 [11]: > 10 µM
- EC50 [12]: > 10 µM
- fraction unbound [13]: 0.055
- IC50 (Cytochrome P450 1A2): ≥ 30 µM
- IC50 (Cytochrome P450 2C9): ≥ 30 µM
- IC50 (Cytochrome P450 2D6): ≥ 30 µM
- IC50 (Cytochrome P450 3A4): ≥ 30 µM
- Fu [14]: 8.2%
- Fu [15]: 6.8%
- solubility [16]: 13 µg/mL (≈ 38.4 µM)
- IC50 [17]: > 10 µM
- IC50 [18]: > 10 µM
- IC50 [19]: > 10 µM
- clearance [20]: 19 mL/min/kg
- Vd [21]: 1.6 L/kg
- half-life [22]: 1.6 h
- Cmax [23]: 730 ng/mL
- AUC(0-inf) [24]: 6670 ng·h/mL
- bioavailability [25]: 88%
- clearance [26]: 25 mL/min/kg
- Vd [27]: 2.6 L/kg
- half-life [28]: 2.4 h
- Cmax [29]: 519 ng/mL
- AUC(0-inf) [30]: 1540 ng·h/mL
- bioavailability [31]: 48%
- Activity (Rattus norvegicus [32]): Dose-dependent effect
- Activity (Rattus norvegicus [33]): Active
- Activity (Rattus norvegicus [34]): Dose-dependent effect
- minimal effective dose (Rattus norvegicus [34]; read-out: MED): 0.3 mg/kg
- Activity (Rattus norvegicus [35]): Toxic
- Activity (Rattus norvegicus [36]): Toxic
- Activity (Rattus norvegicus [37]): Toxic
- Activity (Rattus norvegicus [38]): Toxic
- inhibition [39]: 57%
- Tmax (in vivo [40]): 4 h
- Tmax (in vivo [41]): 0.7 h

Compound: CC(Oc1ccccc1)c1cc2n(n1)CCN(c1ccc(F)cc1)C2=O (stereo not given)
- EC50 [1]: 7.76 µM
- Emax [2]: 65%

Compound: O=C1c2cc(COc3ccccc3F)nn2CCN1c1ccc(F)cc1
- EC50 [1]: 0.15 µM
- Emax [2]: 66%

Compound: O=C1c2cc(COc3ccccn3)nn2CCN1c1ccc(F)cc1
- EC50 [1]: 0.49 µM
- Emax [2]: 68%
- EC50 [3]: 0.29 µM
